Experimental data published in ChEMBL document CHEMBL5321293, “Discovery of ERD-3111 as a Potent and Orally Efficacious Estrogen Receptor PROTAC Degrader with Strong Antitumor Activity” (J Med Chem, 2023).
Activity calls are given as the source filed them. The calls are words filed in the database; no cut-off is given here.

Assays:
[1] = Downregulation of ERalpha protein expression in tumor of CB17 SCID mouse xenografted with human MCF7 cells harboring ESR1 D538G mutant at 10 mg/kg, po qd for 3 days and measured after 6 hrs last dose by Western blot analysis relative to control; format: functional; details: time 3 day
MCF7 [2] = test: Antitumor activity against human MCF7 cells harboring ESR1 D538G mutant xenografted in CB17 SCID mouse assessed as tumor growth inhibition at 30 mg/kg, po qd for 4 weeks and measured 1 week post last dose; format: functional, organism-based
[3] = Downregulation of ERalpha protein expression in tumor of CB17 SCID mouse xenografted with human MCF7 cells harboring wild type ESR1 at 30 mg/kg, po qd for 3 days and measured after 3 hrs last dose by Western blot analysis relative to control; format: functional; details: time 3 day
[4] = AUC in Sprague-Dawley rat at 3 mg/kg, po and measured upto 24 hrs by LC-MS/MS analysis; format: ADME, organism-based; parameters: dose 3 mg/kg, time < 24 hrs, route po; details: Sprague-Dawley, in vivo
Cytochrome P450 3A4 = Cytochrome P450 3A4 (Homo sapiens, UniProt P08684); test: Inhibition of CYP3A4 in human liver microsomes using testosterone as substrate preincubated for 5 mins followed by NADPH addition and measured after 10 mins by LC-MS/MS analysis; format: ADME, Microsome
Sequence of Cytochrome P450 3A4 (P08684 whole entry): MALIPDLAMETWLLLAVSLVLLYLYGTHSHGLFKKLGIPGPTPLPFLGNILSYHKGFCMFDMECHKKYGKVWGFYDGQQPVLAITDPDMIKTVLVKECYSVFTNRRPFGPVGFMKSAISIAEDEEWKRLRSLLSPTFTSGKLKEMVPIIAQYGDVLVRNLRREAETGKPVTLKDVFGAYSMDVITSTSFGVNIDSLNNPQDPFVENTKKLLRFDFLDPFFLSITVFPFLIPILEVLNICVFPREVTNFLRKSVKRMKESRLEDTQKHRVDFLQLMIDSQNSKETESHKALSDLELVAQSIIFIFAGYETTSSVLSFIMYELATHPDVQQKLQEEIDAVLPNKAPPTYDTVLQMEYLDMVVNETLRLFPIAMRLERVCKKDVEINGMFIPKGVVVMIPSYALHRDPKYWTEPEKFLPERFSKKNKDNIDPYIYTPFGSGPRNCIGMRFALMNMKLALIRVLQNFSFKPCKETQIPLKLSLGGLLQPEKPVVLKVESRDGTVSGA

[5] = target: T1, Protein cereblon/Estrogen receptor (Homo sapiens, UniProt P03372+Q96SW2); test: Protac activity at human ERalpha in ER positive human MCF7 cells assessed as reduction in ERalpha protein level at 0.1 to 30 nM by Western blot analysis; format: cell-based; details: dose 0.1-30 nM
T1 sequence (P03372 whole entry, looked up): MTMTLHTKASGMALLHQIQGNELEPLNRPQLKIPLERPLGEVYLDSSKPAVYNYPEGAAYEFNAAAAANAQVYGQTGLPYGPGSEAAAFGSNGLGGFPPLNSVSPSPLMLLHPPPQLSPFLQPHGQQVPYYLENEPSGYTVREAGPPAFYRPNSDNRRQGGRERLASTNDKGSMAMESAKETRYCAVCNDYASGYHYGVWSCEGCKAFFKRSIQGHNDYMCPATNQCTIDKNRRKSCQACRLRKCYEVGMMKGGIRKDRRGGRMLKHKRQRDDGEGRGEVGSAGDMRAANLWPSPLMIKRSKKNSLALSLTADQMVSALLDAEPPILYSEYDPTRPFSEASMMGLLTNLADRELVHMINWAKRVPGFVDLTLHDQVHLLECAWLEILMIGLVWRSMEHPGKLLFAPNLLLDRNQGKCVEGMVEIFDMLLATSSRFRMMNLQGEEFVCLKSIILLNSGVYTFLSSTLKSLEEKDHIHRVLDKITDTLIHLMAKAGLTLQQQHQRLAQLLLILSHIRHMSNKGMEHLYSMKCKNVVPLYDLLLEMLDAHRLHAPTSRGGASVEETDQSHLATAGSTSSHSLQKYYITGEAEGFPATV
T1 sequence (Q96SW2 whole entry, looked up): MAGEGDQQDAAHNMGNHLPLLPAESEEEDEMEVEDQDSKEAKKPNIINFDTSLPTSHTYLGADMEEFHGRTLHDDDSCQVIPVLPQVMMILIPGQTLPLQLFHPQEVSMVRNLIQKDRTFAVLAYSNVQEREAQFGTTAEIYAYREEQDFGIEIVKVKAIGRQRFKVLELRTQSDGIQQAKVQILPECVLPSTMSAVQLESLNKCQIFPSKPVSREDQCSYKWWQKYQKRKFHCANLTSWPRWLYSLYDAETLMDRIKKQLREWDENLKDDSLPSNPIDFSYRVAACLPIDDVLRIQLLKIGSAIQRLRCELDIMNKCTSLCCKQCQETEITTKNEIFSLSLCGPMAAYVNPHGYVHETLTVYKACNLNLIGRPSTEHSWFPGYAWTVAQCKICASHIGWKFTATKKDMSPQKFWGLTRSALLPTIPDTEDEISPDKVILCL

[6] = Toxicity in CB17 SCID mouse xenografted with human MCF7 cells harboring ESR1 D538G mutant assessed as body weight change at 10 mg/kg,po qd for 4 weeks; format: organism-based; details: in vivo, 672 h
[7] = Drug concentration in plasma of CB17 SCID mouse xenografted with human MCF7 cells harboring wild type ESR1 at 10 mg/kg, po qd for 3 days and measured after 6 hrs last dose by LC-MS/MS analysis; format: ADME, organism-based; details: time 3 day
Cytochrome P450 2C9 = Cytochrome P450 2C9 (Homo sapiens, UniProt P11712); test: Inhibition of CYP2C9 in human liver microsomes preincubated for 5 mins in presence substrate followed by NADPH addition and measured after 10 mins by LC-MS/MS analysis; format: ADME, Microsome
Sequence of Cytochrome P450 2C9 (P11712 whole entry): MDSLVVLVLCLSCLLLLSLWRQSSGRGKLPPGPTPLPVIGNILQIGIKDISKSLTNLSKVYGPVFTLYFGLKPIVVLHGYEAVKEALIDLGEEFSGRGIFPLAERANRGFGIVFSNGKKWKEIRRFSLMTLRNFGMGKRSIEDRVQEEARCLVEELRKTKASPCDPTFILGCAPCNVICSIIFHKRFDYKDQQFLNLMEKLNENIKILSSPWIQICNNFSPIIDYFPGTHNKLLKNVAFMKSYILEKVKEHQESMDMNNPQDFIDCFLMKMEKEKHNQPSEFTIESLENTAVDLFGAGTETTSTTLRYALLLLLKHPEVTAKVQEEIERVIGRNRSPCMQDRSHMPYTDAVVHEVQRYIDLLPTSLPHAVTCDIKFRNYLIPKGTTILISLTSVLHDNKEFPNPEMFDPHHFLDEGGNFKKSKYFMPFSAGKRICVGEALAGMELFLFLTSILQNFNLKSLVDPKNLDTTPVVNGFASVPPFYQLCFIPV

[8] = Half life in ICR mouse at 3 mg/kg, po and measured upto 24 hrs by LC-MS/MS analysis; format: ADME, organism-based; details: in vivo
[9] = Drug concentration in tumor of CB17 SCID mouse xenografted with human MCF7 cells harboring wild type ESR1 at 30 mg/kg, po qd for 3 days and measured after 3 hrs last dose by LC-MS/MS analysis; format: ADME, organism-based, Neoplasm; details: time 3 day, read-out: Ct
MCF7 [10] = test: Antitumor activity against human MCF7 cells harboring ESR1 Y537S mutant xenografted in CB17 SCID mouse assessed as tumor growth inhibition at 30 mg/kg, po qd for 4 weeks; format: functional; details: MCF7, 672 h, read-out: TGI
[11] = Drug concentration in plasma of CB17 SCID mouse xenografted with human MCF7 cells harboring ESR1 Y537S mutant at 10 mg/kg, po qd for 3 days and measured after 6 hrs last dose by LC-MS/MS analysis; format: ADME, organism-based; details: time 3 day
Cytochrome P450 2C19 = Cytochrome P450 2C19 (Homo sapiens, UniProt P33261); test: Inhibition of CYP2C19 in human liver microsomes preincubated for 5 mins in presence substrate followed by NADPH addition and measured after 10 mins by LC-MS/MS analysis; format: ADME, Microsome
Sequence of Cytochrome P450 2C19 (P33261 whole entry): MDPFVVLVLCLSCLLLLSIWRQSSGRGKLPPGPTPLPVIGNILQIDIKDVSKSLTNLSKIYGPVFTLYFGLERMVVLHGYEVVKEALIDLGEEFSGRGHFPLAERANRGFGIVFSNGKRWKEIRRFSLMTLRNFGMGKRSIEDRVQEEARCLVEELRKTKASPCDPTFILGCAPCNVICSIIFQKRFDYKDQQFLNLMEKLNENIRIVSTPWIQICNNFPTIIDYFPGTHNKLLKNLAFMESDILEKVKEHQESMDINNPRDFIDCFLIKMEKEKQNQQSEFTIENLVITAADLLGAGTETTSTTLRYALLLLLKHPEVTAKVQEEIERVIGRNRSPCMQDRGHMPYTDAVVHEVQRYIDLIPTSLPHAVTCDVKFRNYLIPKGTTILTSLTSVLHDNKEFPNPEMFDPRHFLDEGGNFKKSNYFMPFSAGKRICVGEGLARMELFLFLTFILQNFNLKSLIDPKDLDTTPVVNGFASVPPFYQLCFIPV

Cytochrome P450 2C8 = target: T2, Cytochrome P450 2C8 (Homo sapiens, UniProt P10632); test: Inhibition of CYP2C8 in human liver microsomes preincubated for 5 mins in presence substrate followed by NADPH addition and measured after 10 mins by LC-MS/MS analysis; format: ADME, Microsome
T2 sequence (P10632 whole entry): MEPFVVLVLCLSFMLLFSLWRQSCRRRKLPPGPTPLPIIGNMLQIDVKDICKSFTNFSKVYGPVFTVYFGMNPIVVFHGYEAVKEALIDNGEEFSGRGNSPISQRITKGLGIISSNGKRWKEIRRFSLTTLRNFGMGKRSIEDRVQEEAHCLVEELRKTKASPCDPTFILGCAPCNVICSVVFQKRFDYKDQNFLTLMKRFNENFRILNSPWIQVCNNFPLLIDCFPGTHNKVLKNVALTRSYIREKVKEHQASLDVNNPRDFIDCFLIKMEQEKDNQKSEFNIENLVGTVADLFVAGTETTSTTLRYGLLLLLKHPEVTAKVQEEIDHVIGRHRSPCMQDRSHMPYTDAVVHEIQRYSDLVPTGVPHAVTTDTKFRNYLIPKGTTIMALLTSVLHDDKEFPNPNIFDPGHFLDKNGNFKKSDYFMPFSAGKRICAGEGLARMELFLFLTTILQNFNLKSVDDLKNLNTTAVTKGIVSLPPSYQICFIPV

MCF7 [12] = test: Antitumor activity against human MCF7 cells harboring ESR1 Y537S mutant xenografted in CB17 SCID mouse assessed as tumor growth inhibition at 30 mg/kg, po qd for 4 weeks and measured 30 days post last dose; format: functional; details: MCF7, 672 h, read-out: TGI
Cytochrome P450 2D6 = Cytochrome P450 2D6 (Homo sapiens, UniProt P10635); test: Inhibition of CYP2D6 in human liver microsomes preincubated for 5 mins in presence substrate followed by NADPH addition and measured after 10 mins by LC-MS/MS analysis; format: ADME, Microsome
Sequence of Cytochrome P450 2D6 (P10635 whole entry): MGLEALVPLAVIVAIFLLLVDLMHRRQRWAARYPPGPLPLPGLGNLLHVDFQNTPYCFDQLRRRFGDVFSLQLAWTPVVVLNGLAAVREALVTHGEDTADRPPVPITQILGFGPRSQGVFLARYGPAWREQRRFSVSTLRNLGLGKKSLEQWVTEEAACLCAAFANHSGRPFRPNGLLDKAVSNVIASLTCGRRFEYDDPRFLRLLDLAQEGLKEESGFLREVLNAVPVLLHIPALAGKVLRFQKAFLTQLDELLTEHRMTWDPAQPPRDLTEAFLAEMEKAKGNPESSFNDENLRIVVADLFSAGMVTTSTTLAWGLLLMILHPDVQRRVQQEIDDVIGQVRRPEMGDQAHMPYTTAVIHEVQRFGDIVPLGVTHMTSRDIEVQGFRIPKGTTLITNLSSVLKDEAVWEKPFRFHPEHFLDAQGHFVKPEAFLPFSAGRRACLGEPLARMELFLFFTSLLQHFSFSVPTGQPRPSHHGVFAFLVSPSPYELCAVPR

MCF7 [13] = test: Antitumor activity against human MCF7 cells harboring ESR1 Y537S mutant xenografted in CB17 SCID mouse assessed as tumor growth inhibition at 10 mg/kg, po qd for 4 weeks and measured 30 days post last dose; format: functional; details: MCF7, 672 h, read-out: TGI
MCF7 [14] = test: Antitumor activity against human MCF7 cells harboring wild type ESR1 xenografted in CB17 SCID mouse assessed as tumor growth inhibition at 30 mg/kg, po qd for 5 weeks; format: functional; details: MCF7, 840 h, read-out: TGI
[15] = target: T1, Protein cereblon/Estrogen receptor; test: Protac activity at human ERalpha in human MCF7 cells assessed as induction of ERalpha degradation by measuring maximum efficacy at 1 uM incubated for 12 hrs by ICW blot assay relative to control; format: cell-based
[16] = Downregulation of ERalpha protein expression in tumor of CB17 SCID mouse xenografted with human MCF7 cells harboring wild type ESR1 at 30 mg/kg, po qd for 3 days and measured after 6 hrs last dose by Western blot analysis relative to control; format: functional; details: time 3 day
[17] = Drug concentration in tumor of CB17 SCID mouse xenografted with human MCF7 cells harboring ESR1 Y537S mutant at 10 mg/kg, po qd for 3 days and measured after 6 hrs last dose by LC-MS/MS analysis; format: ADME, organism-based, Neoplasm; details: time 3 day, read-out: Ct
[18] = AUC in ICR mouse at 3 mg/kg, po and measured upto 24 hrs by LC-MS/MS analysis; format: ADME, organism-based; parameters: dose 3 mg/kg, time < 24 hrs, route po; details: in vivo
[19] = Drug concentration in plasma of CB17 SCID mouse xenografted with human MCF7 cells harboring ESR1 Y537S mutant at 30 mg/kg, po qd for 3 days and measured after 6 hrs last dose by LC-MS/MS analysis; format: ADME, organism-based; details: time 3 day
[20] = Downregulation of ERalpha protein expression in tumor of CB17 SCID mouse xenografted with human MCF7 cells harboring ESR1 Y537S mutant at 10 mg/kg, po qd for 3 days and measured after 6 hrs last dose by Western blot analysis relative to control; format: functional; details: time 3 day
[21] = Clearance in Beagle dog at 0.5 mg/kg, iv and measured upto 24 hrs by LC-MS/MS analysis; format: ADME, organism-based, Canis lupus familiaris; details: in vivo

With `C[C@@H]1Cc2c(ccc3[nH]ncc23)[C@@H](c2c(F)cc(N3CCC4(CCN(C(=O)CN5Cc6cc7c(cc6C5)C(=O)N(C5CCC(=O)NC5=O)C7=O)CC4)CC3)cc2F)N1CC(F)F` (stereo partly specified) the Activity [1] was 68%, the Activity (MCF7 [2]) was “Active” and the Activity [3] was 82%. The AUC at 24 h [4] was 1320 ng·h/mL, the IC50 (Cytochrome P450 3A4) was over 10 µM and the Activity [5] was “Dose-Dependent Effect”. The Activity [6] was “Non-Toxic”, the concentration at 72 h [7] was 433 ng/mL and the IC50 (Cytochrome P450 2C9) was over 10 µM. It also gave a half-life [8] of 6.4 h, a concentration at 72 h [9] of 1410 ng/mL and an inhibition in vivo at 30 mg/kg (MCF7 [10]) of 86%. It also gave a concentration at 72 h [11] of 502 ng/mL, an IC50 (Cytochrome P450 2C19) of over 10 µM and an IC50 (Cytochrome P450 2C8) of over 10 µM. The inhibition in vivo at 30 mg/kg (MCF7 [12]) was 101%, the IC50 (Cytochrome P450 2D6) was over 10 µM and the inhibition in vivo at 10 mg/kg (MCF7 [13]) was 99%. It also gave an inhibition in vivo at 30 mg/kg (MCF7 [14]) of 42%, an Emax [15] of 91% and an Activity [16] of 66%. The concentration at 72 h [17] was 692 ng/mL, the AUC at 24 h [18] was 3370 ng·h/mL and the concentration at 72 h [19] was 2830 ng/mL. The Activity [20] was 70% and the clearance [21] was 11 mL/min/kg.
